# Literature values as cited in patent publication US5516904A, “Acetylenes disubstituted with a heteroaromatic group and a substituted phenyl group having retinoid like activity” (Allergan, Inc., priority 1995, dated 1996).
# Tested on: ornithine decarboxylase (ODC)
# Conditions: result in words; literature background
smiles,measurement,value
"CC1=C(/C=C/C(C)=C/C=C/C(C)=C/C(=O)O)C(C)(C)CCC1 [Retionic acid, retinoic acid]",inhibition of induction of ODC activity by TPA,inhibits
